US20200239398A1, “METHYLENE-CYCLOALKYLACETATE DERIVATIVES AND THEIR USE IN TREATMENT OF NEUROTROPIC CONDITIONS” (Yissum Research Development Company of The Hebrew …, priority 2018, published 2020)

How the values were obtained:
[1] = system: PC12 cells; test: PC12 cell neurotropic assay (neurite outgrowth); assay type: cell-based, rat; conditions: 10 μM; for Neurotropic effect (mean ± SE) Seven Days Df / Neurotropic effect (mean ± SE) Two Days Df: PC12 cells, Df = fractal dimension of neurite outgrowth; for Neurotropic effect (mean ± SE) Seven Days Df: seven days of treatment; for Neurotropic effect (mean ± SE) Two Days Df: two days of treatment; for Neurotropic effect Seven Days NGF (%) / Neurotropic effect Two Days NGF (%): relative to NGF 50 ng/ml; for inducing fast neurite outgrowth (in words): after two days of treatment
Description: PC12 cells were grown in T-200 flasks in high glucose (4.5 gr/L) DMEM medium supplemented with 7% FCS, 7% horse serum and 1% penicillin and streptomycin. Cells were incubated at 37° C. in a humidified incubator containing 6% CO2. All experiments were carried out in a clean room, according to ISO7 requirements (10,000 particles/m^3).
Tissue culture Falcon plates were coated with 200 μg/ml collagen type 1 and placed under UV light for 30 minutes for sterilization. Thereafter, one ml of PC12 cell suspension (5000 cells/well) was applied in 12 or 24 well plate, respectively. The cultures were grown in the incubator two days before exposure to investigated compound.
This experimental procedure contained two controls. The first consisted of untreated cells (negative control), representing the random effect: “noise signal”—the ability of cells to spontaneously grow neurite outgrowth which in seven days are of a length less than two-fold cell diameter. Also, negative controls consisted of cultures treated with 1% DMSO, solvent used to solubilize all compounds. The positive control consisted of cells treated with 50 ng/ml NGF, indicating maximal neurite outgrowth that can be achieved in this model. The experimental group consisted of PC12 cells treated with synthetic compounds. In each experiment, after two and seven days, six cultures were evaluated for neurotropic effect. These consecutive observations allow measurement of the progress of neurite outgrowth elongation and the percentage of cells with neurites.^31
In order to assess neurotropic effect, the neurite outgrowth length in each culture was quantified. For this purpose, each culture was placed under an inverted microscope and photographed by the attached camera. Each well was photographed at three to five representative areas. After acquiring the photos, they were analyzed by ImageJ, NIH software. The neurite outgrowth was estimated by fractal dimension (Df), a statistical parameter that describes the fractional space (area and length) filled by neurite outgrowth. Df ranged from 0 to 1.20. This method estimates the amount of picsel covered by neurites/cells compared to empty space per square field, and therefore plotting log (number of square boxes) vs. log (size in pixels) relationship generates a linear curve with Df representing the slope of the curve. Every photograph that was taken, was opened in a Photoshop software and a new layer was generated on it. Using a 5-pixel wide digital pencil tool, all the outgrowths were marked and the layer with the markers (outgrowth network) was saved in a 0-255 gray scale as described in FIG. 2. Then, the saved layer was opened by ImageJ NIH software. The software “skeletonized” the layer, measured the length and complexity of every outgrowth in a fractal box count and calculated the fractional dimension parameter (Df).^32
Each experiment was performed in duplicates and repeated three to four times (n=6-8). By using SPSS software, one way ANOVA was performed for the fractional dimension of each compound, in order to evaluate the neurotropic effect. In case of significance, Bonferroni post-hoc analysis was performed. The results were considered significant when p<0.05.

[2] = system: PC12 cells; test: Cytotoxicity (cell morphology, LDH release); assay type: cell-based; conditions: 10 μM
[3] = biological target: T1, Nicotinic acetylcholine Receptor-alpha-4 beta-2 (nAChR (a4/b2)) (Homo sapiens, UniProt P17787+P43681); test: cell-based; assay type: cell-based; conditions: Blocker mode; reference compound; read-out: RC50 (the source's name)
T1 construct: DiscoverX (SAFETYscan contract panel)

[4] = biological target: Gamma-aminobutyric acid Receptor A (GABAA); assay type: cell-based; conditions: Blocker mode; reference compound; read-out: RC50 (the source's name)
[5] = system: dorsal root ganglion (DRG) sensory neurons; test: Neurite outgrowth in dorsal root ganglion (DRG) explants; assay type: cell-based, mice
Description: To perform these experiments, about 10 dorsal root ganglia (DRGs) were excised under sterile conditions and transferred to 0.25% Type IV collagenase (Sigma-Aldrich-Merck) in Dulbecco's Modified Eagle Medium (DMEM) at 37° C. for 45 min, followed by a 20-min incubation with 0.025% trypsin in DMEM, to digest the associated connective tissue surrounding the neurons. After plating the ganglia onto collagen (50 μg/ml)/laminin mixture (5 μg/ml)-coated tissue culture wells for 24 h, DRG neurons were cultured for additional 1-7 days in fresh Neurobasal A/B27 containing either 50 ng/ml NGF (positive control), blank medium (DMSO 1%) control and HU-MCA-13. The cultures were photographed; thereafter the ganglia were immune-stained for neuronal tubulin and again photographed using a fluorescent microscope. Image analysis was performed by a researcher blinded to the experimental conditions. Neurite outgrowth distance measured in micrometers, was quantified as for PC12 cultures.

[6] = system: PC12 cells; test: Additive neurotropic effect between HU-MCA-13 and NGF, PC12 neurite outgrowth; assay type: cell-based, rat
Description: PC12 cells were cultured in T-200 flasks in high glucose (4.5 gr/L) DMEM medium supplemented with 7% FCS, 7% horse serum and 1% penicillin and streptomycin. Cells will be maintained at 37° C. in a humidified incubator containing 6% CO2. All experiments were carried out in a GLP clean room, according to ISO 7 requirements (10,000 particles/m^3). For neurotropic experiments, tissue culture Falcon plates were coated with 200 μg/ml collagen type 1 and placed under UV light for 30 minutes for sterilization. Thereafter, one ml of PC12 cell suspension (5000 cells/well) was applied in 12 or 24 well plate, respectively. The cultures were maintained in the incubator two days before exposure to investigated compound. Each neurotropic experiment contained two controls. The first consisted of untreated cells (negative control), representing the random effect: “noise signal”—the ability of cells to spontaneously grow neurite outgrowth which in seven days are of a length less than two-fold cell diameter. Also, negative controls consisted of cultures treated with 1% DMSO, solvent used to solubilize HU-MCA-13. The positive controls represented neuronal cultures treated with 50 ng/ml NGF, indicating maximal neurite outgrowth that can be achieved in this model. The experimental group consisted of PC12 cells treated with 10 μM HU-MCA-13. In each experiment, after two and seven days, six cultures will be evaluated for neurotropic effect. These consecutive observations allow measurement of the progress of neurite outgrowth elongation and the percentage of cells with neurites (Katzir et al. A quantitative bioassay for nerve growth factor, using PC12 clones expressing different levels of trkA receptors. J Mol Neurosci. 2002; 18(3):251-64). In order to assess neurotropic effect, the neurite outgrowth length in each culture was quantified. For this purpose, each culture was placed under an inverted microscope and photographed by the attached camera. Each well was photographed at three to five representative areas. After acquiring the photos, they were analyzed by ImageJ, NIH software. The neurite outgrowth was estimated by fractal dimension (Df), a statistical parameter that describes the fractional space (area and length) filled by neurite outgrowth. Df ranged from 0 to 1.20. This method estimated the amount of picsels covered by neurites/cells compared to empty space per square field, and therefore plotting log(number of square boxes) vs. log(size in pixels) relationship generated a linear curve with Df representing the slope of the curve. Every photograph that was taken, was opened in a Photoshop software and a new layer was generated on it. Using a 5-pixel wide digital pencil tool, all the outgrowths were marked and the layer with the markers (outgrowth network) were saved in a 0-255 gray scale. Thereafter, the saved layer was opened by ImageJ NIH software.
Using an established PC12 neurotropic in vitro assay, the regenerative enhancing effect of HU-MCA-13 when applied concomitantly, together with NGF, a known neurotrophin was investigated. […] NGF alone, as positive control, at the conventional dose of 50 ng/ml enhanced neurite outgrowth to a Df value of 0.54 at 2 days and 0.4 at 7 days of treatment (FIG. 5). To verify a possible additive effect, the cultures with a mixture of low dose NGF (1 ng/ml generating 10% neurite outgrowth=Df of 0.05) and 1 μM HU-MCA-13 generating about 10-15% neurite outgrowth=Df of 0.04) were tested and found after 2 days a Df of 0.85 and after 7 days a Df of 0.38. NGF is released by hematopoietic cells during polyneuropathy inflammatory process, this finding further strength the possibility of a potential enhancement regenerative effect of this drug upon in vivo therapy.

[7] = NGF 50 ng/ml, DRG explants, 5 days

T1 sequence (P43681 29-627 limits assumed): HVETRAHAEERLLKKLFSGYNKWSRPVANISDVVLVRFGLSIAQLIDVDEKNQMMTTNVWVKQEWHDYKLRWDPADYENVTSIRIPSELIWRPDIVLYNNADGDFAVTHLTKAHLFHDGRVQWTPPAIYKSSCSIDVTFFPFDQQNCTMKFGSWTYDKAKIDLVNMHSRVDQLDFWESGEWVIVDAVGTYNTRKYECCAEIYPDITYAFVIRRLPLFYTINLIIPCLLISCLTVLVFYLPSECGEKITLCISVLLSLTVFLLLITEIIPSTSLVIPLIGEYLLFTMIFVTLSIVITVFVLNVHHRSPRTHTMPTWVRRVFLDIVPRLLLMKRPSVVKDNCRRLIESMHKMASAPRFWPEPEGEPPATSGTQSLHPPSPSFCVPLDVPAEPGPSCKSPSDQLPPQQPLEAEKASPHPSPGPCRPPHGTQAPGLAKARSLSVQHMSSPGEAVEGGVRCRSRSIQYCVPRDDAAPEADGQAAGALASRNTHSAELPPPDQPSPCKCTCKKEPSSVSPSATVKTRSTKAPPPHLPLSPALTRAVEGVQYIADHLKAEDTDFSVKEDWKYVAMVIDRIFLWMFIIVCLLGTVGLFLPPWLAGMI
T1 sequence (P17787 26-502): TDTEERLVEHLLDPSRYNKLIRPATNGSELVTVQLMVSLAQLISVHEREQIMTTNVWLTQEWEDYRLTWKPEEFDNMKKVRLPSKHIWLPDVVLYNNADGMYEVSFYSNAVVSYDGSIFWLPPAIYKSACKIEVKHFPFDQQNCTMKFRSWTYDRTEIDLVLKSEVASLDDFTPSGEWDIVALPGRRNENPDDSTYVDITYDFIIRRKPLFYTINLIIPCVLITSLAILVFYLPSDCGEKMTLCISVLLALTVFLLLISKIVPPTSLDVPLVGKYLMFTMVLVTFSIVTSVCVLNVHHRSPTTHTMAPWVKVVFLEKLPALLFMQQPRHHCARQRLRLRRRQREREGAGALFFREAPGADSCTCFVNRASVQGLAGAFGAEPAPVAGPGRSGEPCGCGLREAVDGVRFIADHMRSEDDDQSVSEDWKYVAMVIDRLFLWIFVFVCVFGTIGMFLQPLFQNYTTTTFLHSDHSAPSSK

Q: How did the “loss of activity from day two to seven” value [1] turn out when `C=C(C)CC1CCCC(CC(=O)OC)C1=C` (stereo not shown) [Compound 5, Methyl 2-(3-(2-methylallyl)-2-methylenecyclohexyl)acetate] was run?
A: 50%

Q: And the “Neurotropic effect (mean ± SE) Seven Days Df” value [1]?
A: 0.20 ± 0.17

Q: And the “Neurotropic effect (mean ± SE) Two Days Df” value [1]?
A: 0.42 ± 0.01

Q: And the “Neurotropic effect Seven Days NGF (%)” value [1]?
A: 43.5%

Q: And the “Neurotropic effect Two Days NGF (%)” value [1]?
A: 91.3%

Q: And the “neurotropic activity (in words)” value ([1]; after seven days of treatment)?
A: significant neurotropic activity

Q: And the “inducing fast neurite outgrowth (in words)” value [1]?
A: most active

Q: For `C=C1C(CC=C(C)C)CCC[C@H]1CC(=O)O` (stereo partly shown) [Compound 6], which “Neurotropic effect (mean ± SE) Seven Days Df” value [1] is on record?
A: 0.20 ± 0.17

Q: What about the “Neurotropic effect (mean ± SE) Two Days Df” value [1] of the same molecule?
A: 0.14 ± 0.15

Q: And the “Neurotropic effect Seven Days NGF (%)” value [1]?
A: 43.5%

Q: What about the “Neurotropic effect Two Days NGF (%)” value [1] of the same molecule?
A: 30.4%

Q: And the “neurotropic activity (in words)” value ([1]; after seven days of treatment)?
A: significant neurotropic activity

Q: And the “inducing fast neurite outgrowth (in words)” value [1]?
A: most active

Q: With `C=C1C(CC=C(C)C)CCCC1CC(=O)OC` (stereo not shown) [Compound 7, Methyl 2-(3-(3-methylbut-2-en-1-yl)-2-methylenecyclohexyl)acetate] as the molecule, how does the “Neurotropic effect (mean ± SE) Seven Days Df” value [1] read?
A: 0.20 ± 0.17

Q: What about the “Neurotropic effect (mean ± SE) Two Days Df” value [1] of the same molecule?
A: 0.12 ± 0.14

Q: What about the “Neurotropic effect Seven Days NGF (%)” value [1] of the same molecule?
A: 43.5%

Q: And the “Neurotropic effect Two Days NGF (%)” value [1]?
A: 26.1%

Q: And the “neurotropic activity (in words)” value ([1]; after seven days of treatment)?
A: significant neurotropic activity

Q: And the “inducing fast neurite outgrowth (in words)” value [1]?
A: most active

Q: `C=C1C(C/C=C/c2ccccc2)CCC[C@H]1CC(=O)O` (stereo partly shown) [Compound 8] was tested. Which “cytotoxicity (in words)” value [2] did it give?
A: partial cytotoxic activity

Q: `C=CCC1CC(=C)C[C@@H](CC(=O)O)C1=C` (stereo partly shown) [Compound 9] was tested. Which “Neurotropic effect (mean ± SE) Seven Days Df” value [1] did it give?
A: 0.01 ± 0.01

Q: What about the “Neurotropic effect Seven Days NGF (%)” value [1] of the same molecule?
A: 2.2%

Q: And the “neurotropic activity (in words)” value ([1]; PC12 cell neurotropic assay)?
A: no activity was detected

Q: How did the “neurotropic activity (in words)” value ([1]; PC12 cell neurotropic assay) turn out when `C=CCC1CC(c2ccccc2)C[C@@H](CC(=O)O)C1=C` (stereo partly shown) [Compound 10] was run?
A: no activity was detected

Q: How did the “Neurotropic effect (mean ± SE) Seven Days Df” value [1] turn out when `C=CCC1CC(c2ccccc2)CC(CC(=O)OC)C1=C` (stereo not shown) [Compound 11, Methyl 2-(3-allyl-2-methylene-5-phenylcyclohexyl)acetate] was run?
A: 0.01 ± 0.01

Q: And the “Neurotropic effect Seven Days NGF (%)” value [1]?
A: 2.2%

Q: What about the “neurotropic activity (in words)” value ([1]; PC12 cell neurotropic assay) of the same molecule?
A: no activity was detected

Q: For `C=CCC1CC(C(C)(C)C)C[C@@H](CC(=O)O)C1=C` (stereo partly shown) [Compound 12], which “Neurotropic effect (mean ± SE) Seven Days Df” value [1] is on record?
A: 0.17 ± 0.16

Q: What about the “Neurotropic effect Seven Days NGF (%)” value [1] of the same molecule?
A: 37.0%

Q: What about the “neurotropic activity (in words)” value ([1]; after seven days of treatment) of the same molecule?
A: significant neurotropic activity

Q: How did the “cytotoxicity (in words)” value [2] turn out when `C=CCC1CN(C(=O)OCC)CC(CC(=O)OC)C1=C` (stereo not shown) [Compound 15, Ethyl-3-allyl-5-(2-methoxy-2-oxoethyl)-4-methylenepiperidine-1-carboxylate] was run?
A: partial cytotoxic activity

Q: For `C=C(C)CC1CCCC(CC(=O)OC)C1=O` (stereo not shown) [Compound 18, Methyl 2-(3-(2-methylallyl)-2-oxocyclohexyl)acetate], which “cytotoxicity (in words)” value [2] is on record?
A: partial cytotoxic activity

Q: For `COC(=O)CC1CCCC(CC=C(C)C)C1=O` (stereo not shown) [Compound 21, Methyl 2-(3-(3-methylbut-2-en-1-yl)-2-oxocyclohexyl)acetate], which “Neurotropic effect (mean ± SE) Seven Days Df” value [1] is on record?
A: 0.01 ± 0.01

Q: And the “Neurotropic effect Seven Days NGF (%)” value [1]?
A: 2.2%

Q: For “Dihydro-AY-erythroidine [reference compound]”, which IC50 [3] is on record?
A: 0.707 µM

Q: How did the IC50 [4] turn out when Picrotoxin [reference compound] was run?
A: 5.92 µM

B1: NGF: Tissue culture grade mouse β-NGF from Alomone Labs; positive control (protein, UniProt P01139 122-241, looked up)
Beta-nerve growth factor: SSTHPVFHMGEFSVCDSVSVWVGDKTTATDIKGKEVTVLAEVNINNSVFRQYFFETKCRASNPVESGCRGIDSKHWNSYCTTTHTFVKALTTDEKQAAWRFIRIDTACVCVLSRKATRRG
modifications: Beta-nerve growth factor
notes: Tissue culture grade mouse β-NGF from Alomone Labs; positive control
Q: With B1 as the molecule, how does the “increase in neurite outgrowth” value ([5]; NGF 50 ng/ml vs blank control medium) read?
A: 3-4 fold

Q: What about the neurite outgrowth length [5, 7] of the same molecule?
A: 700 micrometer

Q: What about the “ratio between the area covered by neurites and that covered by the DRG ganglia” value [5, 7] of the same molecule?
A: 9

Q: And the “neurite outgrowth Df” value ([6]; NGF alone 50 ng/ml, 2 days)?
A: 0.54

Q: What about the “neurite outgrowth Df” value ([6]; NGF alone 50 ng/ml, 7 days) of the same molecule?
A: 0.4

Q: And the neurite outgrowth ([6]; low dose NGF 1 ng/ml)?
A: 10%

Q: What about the “neurite outgrowth Df” value ([6]; low dose NGF 1 ng/ml) of the same molecule?
A: 0.05
